According to ChEMBL document CHEMBL1201862, “PubChem BioAssay data set” (2004):
The source made the active and inactive calls.

How the values were obtained:
[1] = target: Mannose-6-phosphate isomerase (Homo sapiens, UniProt P34949); experiment: MPI inhibition at elevated mannose 6-phosphate – biochemical, fluorescence intensity, high mannose 6-phosphate, primary screen (AID 1220)
[2] = target: T1, Voltage-gated N-type calcium channel alpha-1B subunit/Amyloid beta A4 precursor protein-binding family A member 1 (Homo sapiens, UniProt Q00975+Q02410); format: protein assay
T1 sequence (Q00975 whole entry): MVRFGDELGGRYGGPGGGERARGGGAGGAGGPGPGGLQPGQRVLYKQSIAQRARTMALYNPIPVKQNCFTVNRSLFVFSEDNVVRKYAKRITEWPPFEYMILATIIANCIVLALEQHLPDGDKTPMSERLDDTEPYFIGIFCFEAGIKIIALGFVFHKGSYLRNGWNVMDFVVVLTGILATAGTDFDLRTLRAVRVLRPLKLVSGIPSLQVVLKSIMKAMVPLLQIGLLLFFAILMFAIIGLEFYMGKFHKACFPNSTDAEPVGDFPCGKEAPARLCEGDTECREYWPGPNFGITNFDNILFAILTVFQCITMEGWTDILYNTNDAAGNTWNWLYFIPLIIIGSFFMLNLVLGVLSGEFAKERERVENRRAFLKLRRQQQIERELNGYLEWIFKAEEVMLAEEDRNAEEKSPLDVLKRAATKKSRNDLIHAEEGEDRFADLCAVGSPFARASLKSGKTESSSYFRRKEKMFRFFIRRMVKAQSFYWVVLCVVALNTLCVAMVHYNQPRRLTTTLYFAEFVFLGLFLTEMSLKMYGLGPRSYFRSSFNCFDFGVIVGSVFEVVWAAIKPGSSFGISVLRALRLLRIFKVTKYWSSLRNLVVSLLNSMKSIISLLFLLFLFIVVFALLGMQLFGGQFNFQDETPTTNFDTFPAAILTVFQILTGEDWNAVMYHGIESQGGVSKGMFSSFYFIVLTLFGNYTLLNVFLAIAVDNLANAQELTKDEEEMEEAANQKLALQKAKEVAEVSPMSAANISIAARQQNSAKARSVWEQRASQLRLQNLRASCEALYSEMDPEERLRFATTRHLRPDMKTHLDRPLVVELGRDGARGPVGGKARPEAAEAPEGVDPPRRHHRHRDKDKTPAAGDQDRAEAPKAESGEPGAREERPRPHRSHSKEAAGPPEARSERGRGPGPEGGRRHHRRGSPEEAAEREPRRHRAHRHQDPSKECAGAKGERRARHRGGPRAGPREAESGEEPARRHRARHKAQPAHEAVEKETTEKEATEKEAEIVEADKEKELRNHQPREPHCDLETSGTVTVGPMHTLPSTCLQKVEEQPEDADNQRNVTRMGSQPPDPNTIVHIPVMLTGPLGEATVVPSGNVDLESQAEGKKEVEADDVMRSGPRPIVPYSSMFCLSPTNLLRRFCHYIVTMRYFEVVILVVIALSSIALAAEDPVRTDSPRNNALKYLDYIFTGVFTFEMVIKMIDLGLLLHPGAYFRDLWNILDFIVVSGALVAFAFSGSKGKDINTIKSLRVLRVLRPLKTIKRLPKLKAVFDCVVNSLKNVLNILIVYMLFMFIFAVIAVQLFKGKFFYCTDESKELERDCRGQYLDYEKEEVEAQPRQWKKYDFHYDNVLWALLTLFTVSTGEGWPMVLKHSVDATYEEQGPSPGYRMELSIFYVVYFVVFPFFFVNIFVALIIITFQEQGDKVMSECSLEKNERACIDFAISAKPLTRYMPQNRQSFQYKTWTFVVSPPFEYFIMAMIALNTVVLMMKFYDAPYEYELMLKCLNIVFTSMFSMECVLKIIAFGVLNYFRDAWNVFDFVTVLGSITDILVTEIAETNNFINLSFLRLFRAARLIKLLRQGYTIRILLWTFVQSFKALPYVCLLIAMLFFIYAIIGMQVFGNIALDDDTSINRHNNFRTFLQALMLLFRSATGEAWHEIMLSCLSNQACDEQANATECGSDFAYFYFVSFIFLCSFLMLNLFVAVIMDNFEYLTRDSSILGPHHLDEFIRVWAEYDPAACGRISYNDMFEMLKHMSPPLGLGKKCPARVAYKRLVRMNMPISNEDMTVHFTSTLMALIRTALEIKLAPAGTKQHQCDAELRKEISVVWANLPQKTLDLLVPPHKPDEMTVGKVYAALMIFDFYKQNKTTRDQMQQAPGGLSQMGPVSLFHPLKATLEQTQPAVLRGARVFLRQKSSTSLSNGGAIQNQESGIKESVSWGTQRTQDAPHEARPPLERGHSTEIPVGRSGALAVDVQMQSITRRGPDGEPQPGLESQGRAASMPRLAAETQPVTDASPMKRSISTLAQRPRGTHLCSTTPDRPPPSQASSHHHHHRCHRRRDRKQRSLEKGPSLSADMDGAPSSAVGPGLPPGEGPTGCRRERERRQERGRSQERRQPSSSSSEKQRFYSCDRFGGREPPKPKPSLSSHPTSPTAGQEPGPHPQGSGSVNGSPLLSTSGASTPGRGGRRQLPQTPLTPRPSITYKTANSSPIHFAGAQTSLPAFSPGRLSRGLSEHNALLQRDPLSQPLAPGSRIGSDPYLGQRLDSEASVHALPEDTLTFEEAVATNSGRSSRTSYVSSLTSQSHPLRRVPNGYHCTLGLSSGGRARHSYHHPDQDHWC
T1 sequence (Q02410 whole entry): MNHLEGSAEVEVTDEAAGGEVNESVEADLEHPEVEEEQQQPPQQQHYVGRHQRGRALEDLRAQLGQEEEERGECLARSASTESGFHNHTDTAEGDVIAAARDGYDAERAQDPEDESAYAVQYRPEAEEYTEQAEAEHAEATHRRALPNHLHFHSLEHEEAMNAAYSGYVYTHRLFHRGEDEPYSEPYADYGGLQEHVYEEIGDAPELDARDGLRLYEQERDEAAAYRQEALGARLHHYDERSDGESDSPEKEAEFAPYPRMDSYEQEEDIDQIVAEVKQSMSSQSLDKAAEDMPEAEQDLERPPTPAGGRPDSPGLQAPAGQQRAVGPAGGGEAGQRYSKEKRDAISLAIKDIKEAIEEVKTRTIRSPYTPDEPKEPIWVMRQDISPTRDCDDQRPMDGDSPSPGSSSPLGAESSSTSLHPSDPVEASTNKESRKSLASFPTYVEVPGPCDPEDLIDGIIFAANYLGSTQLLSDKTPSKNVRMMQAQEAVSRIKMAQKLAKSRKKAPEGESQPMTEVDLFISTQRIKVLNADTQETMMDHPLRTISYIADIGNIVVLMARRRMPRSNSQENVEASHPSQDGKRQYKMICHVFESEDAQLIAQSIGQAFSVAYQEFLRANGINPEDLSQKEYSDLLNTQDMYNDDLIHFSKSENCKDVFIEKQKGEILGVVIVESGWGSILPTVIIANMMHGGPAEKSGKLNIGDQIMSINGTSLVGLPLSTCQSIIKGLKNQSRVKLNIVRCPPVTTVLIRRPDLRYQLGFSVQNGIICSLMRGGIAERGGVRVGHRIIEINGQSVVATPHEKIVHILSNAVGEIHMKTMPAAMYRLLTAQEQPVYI

cells = conditions: HEK293
[3] = target: T2, Apoptotic protease-activating factor 1 (Homo sapiens, UniProt O14727); format: functional
T2 sequence (O14727 whole entry): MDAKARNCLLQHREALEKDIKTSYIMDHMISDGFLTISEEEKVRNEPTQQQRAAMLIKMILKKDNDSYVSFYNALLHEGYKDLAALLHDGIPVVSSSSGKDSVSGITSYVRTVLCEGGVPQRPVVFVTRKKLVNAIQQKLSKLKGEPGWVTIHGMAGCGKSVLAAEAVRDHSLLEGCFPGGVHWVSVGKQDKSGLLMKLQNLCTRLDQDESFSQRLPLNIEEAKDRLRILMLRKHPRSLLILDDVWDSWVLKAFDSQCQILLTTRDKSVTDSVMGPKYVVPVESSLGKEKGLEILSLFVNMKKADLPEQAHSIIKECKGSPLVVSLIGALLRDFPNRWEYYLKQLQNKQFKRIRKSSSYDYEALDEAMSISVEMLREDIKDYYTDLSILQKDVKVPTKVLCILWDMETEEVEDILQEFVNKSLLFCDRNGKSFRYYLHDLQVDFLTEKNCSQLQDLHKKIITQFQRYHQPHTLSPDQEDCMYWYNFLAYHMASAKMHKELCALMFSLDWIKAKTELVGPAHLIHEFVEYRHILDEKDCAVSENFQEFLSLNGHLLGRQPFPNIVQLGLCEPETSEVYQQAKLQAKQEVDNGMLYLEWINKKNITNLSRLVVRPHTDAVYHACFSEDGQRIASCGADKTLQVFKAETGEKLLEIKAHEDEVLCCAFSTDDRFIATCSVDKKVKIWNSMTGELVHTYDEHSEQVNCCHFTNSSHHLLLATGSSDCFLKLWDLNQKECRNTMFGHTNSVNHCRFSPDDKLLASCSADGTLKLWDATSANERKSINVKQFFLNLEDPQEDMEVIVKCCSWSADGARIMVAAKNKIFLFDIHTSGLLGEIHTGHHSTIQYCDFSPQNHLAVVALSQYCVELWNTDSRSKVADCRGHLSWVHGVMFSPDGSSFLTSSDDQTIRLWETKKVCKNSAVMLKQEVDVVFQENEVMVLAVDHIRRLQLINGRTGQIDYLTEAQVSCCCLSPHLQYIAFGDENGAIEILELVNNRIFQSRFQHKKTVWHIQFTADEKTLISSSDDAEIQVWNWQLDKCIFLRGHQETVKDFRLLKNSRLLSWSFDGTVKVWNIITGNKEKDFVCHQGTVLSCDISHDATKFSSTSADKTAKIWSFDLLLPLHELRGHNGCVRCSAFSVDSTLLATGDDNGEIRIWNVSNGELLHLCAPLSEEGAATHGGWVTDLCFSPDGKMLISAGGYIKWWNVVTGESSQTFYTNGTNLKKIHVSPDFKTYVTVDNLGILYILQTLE

[4] = target: T3, Polyadenylate-binding protein 1 (Homo sapiens, UniProt P11940); experiment: MLLE domain peptide-binding blockers, IC50 – biochemical, fluorescence polarization, FITC-PAM2 peptide, dose response (AID 602259); format: functional; conditions: read-out: IC50_Mean
T3 sequence (P11940 whole entry, the tested form may be a part): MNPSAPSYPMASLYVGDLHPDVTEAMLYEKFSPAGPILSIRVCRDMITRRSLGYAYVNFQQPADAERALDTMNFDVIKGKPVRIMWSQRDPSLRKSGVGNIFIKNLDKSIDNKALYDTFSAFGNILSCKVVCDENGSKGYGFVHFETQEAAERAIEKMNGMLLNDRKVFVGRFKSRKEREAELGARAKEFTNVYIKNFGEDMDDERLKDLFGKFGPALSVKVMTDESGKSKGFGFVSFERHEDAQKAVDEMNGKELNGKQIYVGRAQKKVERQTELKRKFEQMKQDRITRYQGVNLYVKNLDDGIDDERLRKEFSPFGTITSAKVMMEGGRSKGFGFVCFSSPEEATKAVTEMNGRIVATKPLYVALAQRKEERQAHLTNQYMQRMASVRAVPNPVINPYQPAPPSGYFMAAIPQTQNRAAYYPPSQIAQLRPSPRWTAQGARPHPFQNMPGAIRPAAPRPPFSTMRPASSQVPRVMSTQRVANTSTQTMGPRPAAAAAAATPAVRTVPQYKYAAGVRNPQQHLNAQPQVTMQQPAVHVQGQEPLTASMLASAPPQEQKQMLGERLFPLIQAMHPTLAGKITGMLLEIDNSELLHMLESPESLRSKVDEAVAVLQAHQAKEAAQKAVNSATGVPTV

[5] = target: Glucose-6-phosphate 1-dehydrogenase (Homo sapiens, UniProt P11413); experiment: inhibition of Homo sapiens G6PD, dose series – biochemical, fluorescence, selectivity assay for P. falciparum G6PD inhibitor project, dose response (AID 504792); format: functional
SUMO-activating enzyme [6] = target: T4, SUMO-activating enzyme (Homo sapiens, UniProt Q9UBT2); experiment: blockers of SAE1/SAE2–UBC9 SUMO transfer – biochemical, HTRF, uHTS, primary screen (AID 2006); format: protein-complex assay
T4 sequence (Q9UBE0 whole entry): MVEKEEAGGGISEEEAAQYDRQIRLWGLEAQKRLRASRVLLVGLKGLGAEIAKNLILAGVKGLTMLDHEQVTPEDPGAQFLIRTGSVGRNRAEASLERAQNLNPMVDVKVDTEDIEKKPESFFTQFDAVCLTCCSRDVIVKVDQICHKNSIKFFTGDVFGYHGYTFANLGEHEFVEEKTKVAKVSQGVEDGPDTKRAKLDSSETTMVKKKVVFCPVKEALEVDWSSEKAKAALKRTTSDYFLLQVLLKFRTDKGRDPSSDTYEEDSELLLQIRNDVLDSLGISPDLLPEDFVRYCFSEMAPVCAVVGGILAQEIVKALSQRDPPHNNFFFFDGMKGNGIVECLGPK
T4 sequence (Q9UBT2 whole entry): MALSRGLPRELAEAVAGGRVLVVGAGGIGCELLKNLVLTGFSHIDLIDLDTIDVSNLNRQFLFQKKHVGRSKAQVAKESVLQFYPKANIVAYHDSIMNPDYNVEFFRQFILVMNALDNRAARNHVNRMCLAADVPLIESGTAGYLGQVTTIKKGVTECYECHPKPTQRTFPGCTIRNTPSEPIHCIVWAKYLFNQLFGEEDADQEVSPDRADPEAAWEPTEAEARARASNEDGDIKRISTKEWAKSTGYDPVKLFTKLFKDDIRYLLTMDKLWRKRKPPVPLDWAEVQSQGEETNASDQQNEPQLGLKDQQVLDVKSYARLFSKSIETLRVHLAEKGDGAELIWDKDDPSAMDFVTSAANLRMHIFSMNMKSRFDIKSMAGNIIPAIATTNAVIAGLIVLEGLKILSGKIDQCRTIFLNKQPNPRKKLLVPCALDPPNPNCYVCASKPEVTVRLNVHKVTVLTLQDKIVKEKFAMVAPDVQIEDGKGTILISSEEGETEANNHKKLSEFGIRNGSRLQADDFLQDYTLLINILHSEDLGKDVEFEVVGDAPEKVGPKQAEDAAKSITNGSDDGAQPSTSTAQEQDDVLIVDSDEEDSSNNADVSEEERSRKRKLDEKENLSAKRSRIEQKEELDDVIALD

[7] = target: T1, Voltage-gated N-type calcium channel alpha-1B subunit/Amyloid beta A4 precursor protein-binding family A member 1; format: protein assay; remark: listed apart in the source
[8] = target: T3, Polyadenylate-binding protein 1; experiment: MLLE binding blockers, Cy5 peptide tracer – biochemical, fluorescence polarization, Cy5-PAM2 peptide, secondary, miRNA deadenylation inhibitor project, dose response (AID 602260); format: functional; conditions: read-out: IC50_Mean
SUMO-activating enzyme [9] = target: T4, SUMO-activating enzyme; experiment: blockers of UBC9-mediated SUMO conjugation – biochemical, AlphaScreen, SUMOylation inhibitor project, confirmation (AID 2018); format: functional
[10] = inhibitors of non-replicating M. tuberculosis, dose response, luciferase, dry powder (AID 651619); format: functional; conditions: Mycobacterium tuberculosis
[11] = inhibitors of non-replicating M. tuberculosis, dose response, luciferase, dry powder (AID 651620); format: functional; conditions: Mycobacterium tuberculosis
[12] = T. cruzi growth inhibition in host cells, dose response, cell-based, plate reader, dry powder, set 2 (AID 652275); format: functional
[13] = mouse embryonic fibroblast toxicity – cell-based, plate reader, dry powder, set 2, cytotoxicity control, dose response (AID 652280); format: functional; conditions: NIH3T3
[14] = target: T5, Heat shock factor protein 1 (Mus musculus, UniProt P38532); experiment: decrease of HSF1-responsive luciferase luminescence – cell-based, NIH3T3, dose retest, confirmation (AID 2382); format: functional;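 further: NIH3T3 fibroblasts with HSF1-driven luciferase reporter stressed by proteasome inhibitor MG132; luminescence from HSF1-driven luciferase expression after 8 hours of MG132 stress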
T5 sequence (P38532 whole entry): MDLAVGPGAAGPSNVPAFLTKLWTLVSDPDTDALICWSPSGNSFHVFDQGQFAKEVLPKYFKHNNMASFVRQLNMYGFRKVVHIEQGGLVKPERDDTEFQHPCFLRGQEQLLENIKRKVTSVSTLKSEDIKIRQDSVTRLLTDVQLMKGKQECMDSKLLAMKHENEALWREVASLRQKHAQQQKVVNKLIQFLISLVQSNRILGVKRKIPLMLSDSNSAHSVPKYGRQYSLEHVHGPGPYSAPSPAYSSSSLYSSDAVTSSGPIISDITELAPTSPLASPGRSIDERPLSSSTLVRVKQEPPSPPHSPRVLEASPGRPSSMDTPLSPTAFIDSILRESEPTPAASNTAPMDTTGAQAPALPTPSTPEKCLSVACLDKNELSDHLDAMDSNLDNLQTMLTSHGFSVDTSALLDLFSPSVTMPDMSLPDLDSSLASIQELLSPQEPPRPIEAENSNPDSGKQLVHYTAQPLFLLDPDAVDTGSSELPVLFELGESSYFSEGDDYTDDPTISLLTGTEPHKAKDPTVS

[15] = blockade of melanocortin 4 receptor signaling – cell-based, plate reader, cherry pick, counter-screen for LGR2 antagonist project, dose response (AID 743444); format: functional;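 further: transfected HEK 293 cells stimulated with alpha-MSH peptide; potency of inhibitors of the alpha-MSH evoked signal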
[16] = Shn3 3'UTR reporter signal decrease – cell-based, Clone20 osteoblasts, firefly luciferase, cherry-pick, set 2, Schnurri-3 inhibitor project, dose response (AID 720490); format: functional;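 further: actives lower the luminescence signal as inhibitors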
[17] = viability loss in HEK293 cells – cell-based, plate reader, cherry-picked samples, cytotoxicity control, dose response (AID 743446); format: functional
[18] = A549 cell cytotoxicity, dose response, cytotoxicity control, plate reader, cherry-pick, antagonist series (AID 743412); format: functional, cell-based
[19] = blockers of bursicon-stimulated LGR2 cAMP reporter – cell-based, HEK293, CRE-luciferase reporter, cherry pick, set 2, dose response (AID 743343); format: functional;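 further: transfected cells were stimulated with diluted bursicon conditioned medium after compound addition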
[20] = reduction of Shn3 3'UTR-driven luciferase in osteoblasts – cell-based, Clone20 osteoblasts, firefly luciferase, cherry-picked, dose response (AID 624132); format: functional;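 further: firefly luciferase luminescence from reporter carrying the Shn3 3'UTR in osteoblasts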
[21] = toxicity toward HepG2 liver cells – cell-based, plate reader, cherry-pick, antagonist series, cytotoxicity control, dose response (AID 743416); format: functional
[22] = target: T6, Microphthalmia-associated transcription factor (Homo sapiens, UniProt O75030); experiment: reducers of TRPM1 reporter luminescence, concentration series – cell-based, SK-MEL-5, cherry-picked, set 3, MITF inhibitor project, dose response (AID 493073); format: functional;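 further: SK-MEL-5 melanoma cells with luciferase driven by the MITF target TRPM1 promoter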
T6 sequence (O75030 whole entry): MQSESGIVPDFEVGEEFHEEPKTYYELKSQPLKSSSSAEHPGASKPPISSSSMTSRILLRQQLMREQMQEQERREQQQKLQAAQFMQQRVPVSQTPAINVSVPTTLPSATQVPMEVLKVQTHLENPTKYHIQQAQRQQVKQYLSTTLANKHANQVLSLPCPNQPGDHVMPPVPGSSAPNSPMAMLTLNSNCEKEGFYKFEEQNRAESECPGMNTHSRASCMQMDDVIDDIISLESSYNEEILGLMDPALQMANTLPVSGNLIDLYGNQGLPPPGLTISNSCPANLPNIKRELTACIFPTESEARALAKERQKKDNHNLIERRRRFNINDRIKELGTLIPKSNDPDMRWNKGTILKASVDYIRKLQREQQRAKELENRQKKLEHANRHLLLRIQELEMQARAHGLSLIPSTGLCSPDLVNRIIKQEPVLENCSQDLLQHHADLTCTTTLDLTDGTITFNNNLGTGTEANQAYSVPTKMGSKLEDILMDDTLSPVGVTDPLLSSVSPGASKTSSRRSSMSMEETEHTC

For `CCOC(=O)c1c2ccc(OCC(=O)NN)cc2n2ccccc12`, the IC50 [1] was > 50 µM (not active), the IC50 [2] was 2.73 µM (active) and the AC50 (cells) was > 52 µM (inactive). The IC50 [3] was 18.5 µM (active), the IC50 [4] was 33.6 µM (inactive) and the IC50 [5] was 62.8 µM (inactive). The IC50 (SUMO-activating enzyme [6]) was 1.64 µM (active), the IC50 [7] was 40.2 µM (active) and the IC50 [8] was > 66 µM (inactive). For the same compound, the IC50 (SUMO-activating enzyme [9]) was 6.82 µM (active).

In the case of `[N-]=[N+]=NCCOCCNC(=O)c1ccc(C[S+]([O-])c2nnc(-c3ccc(Cl)cc3)o2)nc1` (stereo not drawn), the IC90 [10] is reported as 16 µM (active) and the IC90 [11] is reported as 16 µM (active).

In the case of `CC(C)(C)[S@@+]([O-])N1Cc2cc(C(=O)NCc3ccc4c(c3)OCO4)nc(-c3cccc(-c4ccncc4)c3)c2[C@H]1CCO`, the AC50 [12] is reported as 0.341 µM (active) and the AC50 [13] is reported as 8.56 µM (active).

For `O=C(O)c1cccc(COc2ccccc2Cl)c1`, the EC50 [14] was 1.06 µM (active), the AC50 [15] was 0.488 µM (active) and the AC50 [16] was 4.74 µM (active). The AC50 [17] was > 52 µM (inactive), the AC50 [18] was > 52 µM (inactive) and the AC50 [19] was 0.517 µM (active). For the same compound, the AC50 [20] was 1.48 µM (active), the AC50 [21] was > 52 µM (inactive) and the AC50 [22] was 0.756 µM (active).
